Laboratory results as given in PubChem BioAssay (NCI).
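Dose response: 5 concentrations. Exposure: 48 h. Format: 96-well plates. Endpoint: linear interpolation; highest concentration if not reached. GI50 marks 50% less growth. At the TGI there is no net growth.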

Tests used:
Experiment in all cases: growth of human tumour cells (NCI), 48 h
[1] = system: 786-0 renal
[2] = system: A498 renal
[3] = system: A549 NSCLC
[4] = system: ACHN renal
[5] = system: CAKI-1 renal
[6] = system: CCRF-CEM leukemia
[7] = system: COLO 205 colon
[8] = system: DLD-1 colon
[9] = system: DMS 273 small cell lung
[10] = system: EKVX NSCLC
[11] = system: HCT-15 colon
[12] = system: HL-60(TB) leukemia
[13] = system: HOP-18 NSCLC
[14] = system: HOP-92 NSCLC
[15] = system: HT29 colon
[16] = system: IGROV1 ovarian
[17] = system: K-562 leukemia
[18] = system: KM12 colon
[19] = system: KM20L2 colon
[20] = system: LOX IMVI melanoma
[21] = system: LXFL 529 NSCLC
[22] = system: M14 melanoma
[23] = system: M19-MEL melanoma
[24] = system: MALME-3M melanoma
[25] = system: MOLT-4 leukemia
[26] = system: NCI-H23 lung
[27] = system: NCI-H460 lung
[28] = system: NCI-H522 lung
[29] = system: OVCAR-3 ovarian
[30] = system: OVCAR-4 ovarian
[31] = system: OVCAR-5 ovarian
[32] = system: OVCAR-8 ovarian
[33] = system: RPMI-8226 leukemia
[34] = system: RXF 393 renal
[35] = system: SF-268 CNS
[36] = system: SF-295 CNS
[37] = system: SF-539 CNS
[38] = system: SK-MEL-2 melanoma
[39] = system: SK-MEL-28 melanoma
[40] = system: SK-MEL-5 melanoma
[41] = system: SK-OV-3 ovarian
[42] = system: SN12C renal
[43] = system: SNB-19 CNS
[44] = system: SNB-75 CNS
[45] = system: SW-620 colon
[46] = system: TK-10 renal
[47] = system: U251 CNS
[48] = system: UACC-257 melanoma
[49] = system: UACC-62 melanoma
[50] = system: UO-31 renal
[51] = system: XF 498 CNS
[52] = system: HCC-2998 colon
[53] = system: HOP-62 NSCLC

`CC(NS(=O)(=O)c1ccc(Cl)cc1)C(=O)O` (stereo not given) was tested, and the TGI [1] was over 100 µM, the TGI [2] was over 100 µM and the TGI [3] was over 100 µM. It also gave a TGI [4] of over 100 µM, a TGI [5] of over 100 µM and a TGI [6] of over 100 µM. For the same compound, the TGI [7] was over 100 µM, the TGI [8] was over 100 µM and the TGI [9] was over 100 µM. The TGI [10] was over 100 µM, the TGI [11] was over 100 µM and the TGI [12] was over 100 µM. The TGI [13] was over 100 µM, the TGI [14] was over 100 µM and the TGI [15] was over 100 µM. For the same compound, the TGI [16] was over 100 µM, the TGI [17] was over 100 µM and the TGI [18] was over 100 µM. The TGI [19] was over 100 µM, the TGI [20] was over 100 µM and the TGI [21] was over 100 µM. The TGI [22] was over 100 µM, the TGI [23] was over 100 µM and the TGI [24] was over 100 µM. The TGI [25] was over 100 µM, the TGI [26] was over 100 µM and the TGI [27] was over 100 µM. The TGI [28] was over 100 µM, the TGI [29] was over 100 µM and the TGI [30] was over 100 µM. The TGI [31] was over 100 µM, the TGI [32] was over 100 µM and the TGI [33] was over 100 µM. For the same compound, the TGI [34] was over 100 µM, the TGI [35] was over 100 µM and the TGI [36] was over 100 µM. It also gave a TGI [37] of over 100 µM, a TGI [38] of over 100 µM and a TGI [39] of over 100 µM. It also gave a TGI [40] of over 100 µM, a TGI [41] of over 100 µM and a TGI [42] of over 100 µM. It also gave a TGI [43] of over 100 µM, a TGI [44] of over 100 µM and a TGI [45] of over 100 µM. For the same compound, the TGI [46] was over 100 µM, the TGI [47] was over 100 µM and the TGI [48] was over 100 µM. It also gave a TGI [49] of over 100 µM, a TGI [50] of over 100 µM and a TGI [51] of over 100 µM.

For `NC1CCCCC1N.O=NN1CCCCCC1(P(=O)([O-])[O-])P(=O)([O-])[O-].[Na+].[Pt+2]`, the GI50 [1] was over 100 µM, the TGI [1] was over 100 µM and the GI50 [2] was over 100 µM. The TGI [2] was over 100 µM, the GI50 [3] was over 100 µM and the TGI [3] was over 100 µM. It also gave a GI50 [4] of over 100 µM, a TGI [4] of over 100 µM and a GI50 [5] of over 100 µM. The TGI [5] was over 100 µM, the GI50 [6] was over 100 µM and the TGI [6] was over 100 µM. The GI50 [7] was over 100 µM, the TGI [7] was over 100 µM and the GI50 [8] was over 100 µM. The TGI [8] was over 100 µM, the GI50 [9] was over 100 µM and the TGI [9] was over 100 µM. For the same compound, the GI50 [10] was over 100 µM, the TGI [10] was over 100 µM and the GI50 [52] was over 100 µM. For the same compound, the TGI [52] was over 100 µM, the GI50 [11] was over 100 µM and the TGI [11] was over 100 µM. It also gave a GI50 [12] of over 100 µM, a TGI [12] of over 100 µM and a GI50 [13] of over 100 µM. The TGI [13] was over 100 µM, the GI50 [53] was over 100 µM and the TGI [53] was over 100 µM. The GI50 [14] was over 100 µM, the TGI [14] was over 100 µM and the GI50 [15] was over 100 µM. The TGI [15] was over 100 µM, the GI50 [16] was over 100 µM and the TGI [16] was over 100 µM. It also gave a GI50 [17] of over 100 µM, a TGI [17] of over 100 µM and a GI50 [18] of over 100 µM. The TGI [18] was over 100 µM, the GI50 [19] was over 100 µM and the TGI [19] was over 100 µM. For the same compound, the GI50 [20] was over 100 µM, the TGI [20] was over 100 µM and the GI50 [21] was over 100 µM. It also gave a TGI [21] of over 100 µM, a GI50 [22] of over 100 µM and a TGI [22] of over 100 µM. The GI50 [24] was over 100 µM, the TGI [24] was over 100 µM and the GI50 [25] was over 100 µM. It also gave a TGI [25] of over 100 µM, a GI50 [26] of over 100 µM and a TGI [26] of over 100 µM. For the same compound, the GI50 [27] was over 100 µM, the TGI [27] was over 100 µM and the GI50 [28] was over 100 µM. For the same compound, the TGI [28] was over 100 µM, the GI50 [29] was over 100 µM and the TGI [29] was over 100 µM. For the same compound, the GI50 [30] was over 100 µM, the TGI [30] was over 100 µM and the GI50 [31] was over 100 µM. The TGI [31] was over 100 µM, the GI50 [32] was over 100 µM and the TGI [32] was over 100 µM. For the same compound, the GI50 [33] was over 100 µM, the TGI [33] was over 100 µM and the GI50 [34] was over 100 µM. For the same compound, the TGI [34] was over 100 µM, the GI50 [35] was over 100 µM and the TGI [35] was over 100 µM. It also gave a GI50 [36] of over 100 µM, a TGI [36] of over 100 µM and a GI50 [37] of over 100 µM. It also gave a TGI [37] of over 100 µM, a GI50 [38] of over 100 µM and a TGI [38] of over 100 µM. For the same compound, the GI50 [39] was over 100 µM, the TGI [39] was over 100 µM and the GI50 [40] was over 100 µM. The TGI [40] was over 100 µM, the GI50 [41] was over 100 µM and the TGI [41] was over 100 µM. For the same compound, the GI50 [42] was over 100 µM, the TGI [42] was over 100 µM and the GI50 [43] was over 100 µM. For the same compound, the TGI [43] was over 100 µM, the GI50 [44] was 96.9 µM and the TGI [44] was over 100 µM. The GI50 [45] was over 100 µM, the TGI [45] was over 100 µM and the GI50 [46] was over 100 µM. For the same compound, the TGI [46] was over 100 µM, the GI50 [47] was over 100 µM and the TGI [47] was over 100 µM. For the same compound, the GI50 [48] was over 100 µM, the TGI [48] was over 100 µM and the GI50 [49] was over 100 µM. The TGI [49] was over 100 µM, the GI50 [50] was over 100 µM and the TGI [50] was over 100 µM. For the same compound, the GI50 [51] was over 100 µM and the TGI [51] was over 100 µM.
